# Data taken from patent US11351102B2, “Plant actives and their anti-pollution effects thereof” (SAMI-SABINSA GROUP LIMITED, priority 2019, dated 2022).
# How the values were obtained:
# [1] = system: Human HaCaT keratinocyte cells; assay: Protection against polycyclic aromatic hydrocarbons (BaP) in the presence of UVA, neutral red uptake; type: cell-based; details: for % Protection against BaP: individual active, UVA-BaP
# Text: Polycyclic aromatic hydrocarbons (PAHs) are a class of mutagenic and tumorigenic environmental contaminants. PAHs are widespread in the environment produced from incomplete combustion of natural materials and tobacco smoke (Connell, D. W.; Hawker, D. W.; Warne, M. J.; Vowles. P. P.; Polycyclic aromatic hydrocarbons (PAHs). In Introduction into Environmental Chemistry (McCombs. K., and Starkweather, A. W., eds), 1997, pp. 205-217, CRC Press LLC, Boca Raton, Fla. 2. Shaw, G. R.; Connell, D. W.: Prediction and monitoring of the carcinogenicity of polycyclic aromatic compounds (PACs). Rev. Environ. Contam. Toxic., 1994, 135, 1-62.) PAHs themselves are biologically inert and require metabolic activation. in order to exert genotoxicity PAHs absorb light in the UVA region, react with oxygen or other molecules to generate reactive intermediates (Yu H, Xia Q, Yan J, et al. Photoirradiation of polycyclic aromatic hydrocarbons with UVA light—a pathway leading to the generation of reactive oxygen species, lipid peroxidation, and dna damage. Int J Environ Res Public Health. 2006; 3:348-354) Thus, PAHs can be “activated” by light irradiation to cause photo-induced cytotoxicity. Thus photoirradiation of PAHs with UVA irradiation represents a pollutant which causes cytotoxicity and DNA damage.
# Human HaCaT keratinocyte cells were seeded at a density of 1×10^4 cells/well in 96 well plates. Cells were allowed to adhere for overnight. They were pretreated with Benzo(a)pyrene a PAH at 0.5 mM concentration along with different concentrations of plant actives for 50 minutes, exposed to UVA at an intensity of 17 Joules m2. Cells were washed with sterile buffer and fresh culture medium (2% of FBS) with respective concentrations of plant actives were added followed by incubation for 24 hours at 37° C. in a CO2 incubator. Neutral Red (25 μg/mL) (3-amino-7-dimethylamino-2-methylphenazine hydrochloride), was added to the cells for 3 hours. The uptake of NR by the cells was determined by lysing the cells and reading the absorbance at 540 nm in a Tecan microplate reader (TECAN Ltd, Männedorf, Switzerland)
# [2] = system: IL-8; assay: Anti-inflammatory activity: IL8 in assay supernatants by ELISA; type: cell-based
# Protocol: IL8 in the assay supernatants were measured using Duoset ELISA kit (R & D systems, Cat No. DY208)
# [3] = system: superoxide dismutase (SOD); assay: Antioxidant assay: superoxide dismutase (SOD) activity in cell lysate, WST-1 method; type: cell-based, Human; details: UV-exposed keratinocytes
# Protocol: (§1) Cellular anti-oxidants are depleted by pollutants. The ability of plant actives to increase these anti-oxidant enzymes in the cells was studied in vitro. Human HaCaT keratinocyte cells were seeded at a density of 5×10^5 cells, well in 6 well plates. The cells were pretreated for one hour with plant actives and exposed to UVA intensity of 17 Joules/m2 for 50 mins. Cells were washed with sterile buffer and fresh culture medium (2% of FBS) with respective concentrations of plant actives were added followed by incubation for 24 hours at 37° C. in a CO2 incubator. Cell lysate were prepared and superoxide dismutase (SOD) levels and glutathione peroxidase (GPx) were estimated.
# The activity of SOD in the cell lysate was measured by WST-1 method using a kit as per the manufacturer's instructions (Elabsciences). Xanthine Oxidase (XO) can catalyze WST-1 react with O2. —to generate a water-soluble formazan dye. SOD can catalyze the disproportionation of superoxide anions, so the reaction can be inhibited by SOD, and the activity of SOD is negatively correlated with the amount of formazan dye. Therefore, the activity of SOD can be determined by the colorimetric analysis of WST-1 products.
# [4] = system: Human HaCaT keratinocyte cells/mouse fibroblast cells; assay: ROS assay (DCFH-DA) after exposure to heavy metals, UVA or UVB; type: cell-based
# Text: A cell permeable, non-fluorescent dye, 2′,7′-dichlorofluorescein diacetate (DCFH-DA) enters the cell and the acetate group on DCFH-DA is cleaved by cellular esterases, trapping the non-fluorescent DCFH inside the cell. Subsequent oxidation by reactive oxygen species generated in the cells, yields the fluorescent DCF which can be detected at 485/520 Ex:Em wavelength. The scavenging activity of sample is indicated by the decrease in fluorescence when compared to the control without antioxidant.
# Human HaCaT keratinocyte cells/mouse fibroblast cells were maintained in DMEM containing 25 mM glucose with 10% heat-inactivated fetal calf serum with antibiotics at 37° C. and 5% CO2. When the cells were 70-80% confluent, they were trypsinized, washed and seeded in 96 well plates at a density seeded at a density of 5×10^4 cells/well. Cells were allowed to adhere for overnight. Cells were pretreated with varying non toxic concentrations of different plant actives for 60 minutes before exposing to the pollutant. Cells were exposed to the following pollutants in the presence of plant actives.
# UVA intensity of 15 Joules/m2 for 60 mins,
# UV-B intensity of 4.6 Joule/m2 for 10 mins
# Heavy metals (Cobalt chloride and Lead Nitrate at 0.25 mm each) for 6 hours
# Intracellular ROS was determined after the specific treatment period by adding freshly prepared DCFH-DA reagent to all the wells at a concentration of 10 μg/well and incubated at 37° C. for 30 mins. The fluorescence was recorded at a wavelength of 485:520 (Ex:Em) nm in BMG FluoStar Optima microplate reader.
# [5] = system: Collagenase Type IV from Clostridium histolyticum; assay: Anti-collagenase activity (DQ gelatin, fluorescence); type: biochemical
# Text: Collagenase is one of the matrix metalloprotease, which digest collagen and other components of the extra cellular matrix (ECM). The ECM serves as a scaffold to stabilize the skin structure, and also helps in proliferation and metabolic functions of the skin cells. Loss of collagen leads to wrinkles and sagging of skin. The principle of the assay of collagenase inhibition is based on the fact that the substrate DQ™ gelatine is conjugated to fluorecein—a fluorescent compound. In DQ™ gelatine, fluorescence is quenched. DQ™ gelatine is efficiently digested by collagenases to yield a fluorescent compound which can be measured. The increase in fluorescence is proportional to enzyme activity. In the presence of an anti-collagenase compound the amount of fluorescence will be decreased for a fixed concentration of enzyme and substrate.
# Collagenase Enzyme assay kit (Enzchek® collagenase, gelatinase assay kit, Invitrogen, USA)
# The assay was performed in a 96 well black microtitre plate. Type IV from Clostridium histolyticum with DQ gelatin as substrate was used for the assay. Different concentrations of various plant actives were pre incubated with 20 µl of gelatin substrate (12.5 µg/ml). 100 µl of the Collagenase enzyme solution (final concentration—0.4 U/ml) was added and the fluorescence intensity was measured at […] after 30 minutes. Enzyme activity of control (buffer) was recorded
# The percentage inhibition is calculated as follows:—
# [formula] B—Fluorescence in the presence of enzyme. BC—Fluorescence in the absence of enzyme activity T—Fluorescence of enzyme activity in the presence of inhibitor TC—Fluorescence of the inhibitor alone
# [6] = system: glutathione peroxidase (GPx); assay: Antioxidant assay: glutathione peroxidase (GPx) activity in cell lysate; type: cell-based, Human; details: UV-exposed keratinocytes
# Protocol: as §1
# Glutathione peroxidase activity was determined according to the method of Hafeman et al. (1974). Glutathione peroxidase degrades H2O2 in presence of glutathione (GSH) thereby depleting it. GSH remaining is measured using DTNB, which gives a colored complex.
# To a volume of 100 μl of cell lysate, 0.2 mM GSH, 0.05 mM H2O2 and 1 mM NaN3 in a total volume of 250 μl with 1M sodium phosphate buffer (pH 7.0). The reaction was incubated at 37° C. for 10 min and stopped by adding 50 μl of 25% TCA. […] The intensity of yellow color formation was measured at 412 nm after incubation at 37° C. for 10 min The enzyme activity was expressed as units/mg protein.
# [7] = DPPH free radical scavenging assay
# Text: Reactive oxygen species (ROS) including superoxide, hydroxyl, peroxyl, and alkoxy radicals are produced by normal metabolic processes. Under normal condition, these free radicals are scavenged by the cellular anti-oxidants and remain in equilibrium. Radiations, toxins and pollutants increase the ROS which can induce oxidative damage to biomolecules such as lipids, nucleic acids, proteins and carbohydrates. These ROS induced damage causes skin irritation, inflammation, ageing, cancer and many other diseases, α, α-diphenyl-β-picrylhydrazyl (DPPH) free radical scavenging method is one of the first approach for evaluating the antioxidant potential of a compound.
# Reagents: 0.1 mM of DPPH in ethanol, 0.1M phosphate buffered saline (pH 7.4)
# DPPH is a stable free radical in a methanolic solution with an absorbance at 520 nm. If the free radicals are scavenged by an anti oxidant molecule, the resulting solution appears yellow. The hydrogen atoms or electrons donation ability of the extracellular metabolite was measured by the bleaching of purple coloured DPPH methanol solution.
# Different concentrations of various plant actives were diluted in methanol. For the DPPH radical scavenging assay, 20 μL of different concentration of sample was mixed with 180 μL of DPPH in methanol in a 96 well plate following the method as described earlier (Clarke et al., 2013). The plate was kept in the dark for 15 min. after which the absorbance of the solution was measured at 540 nm using a microplate reader (TECAN Ltd, Männedorf. Switzerland). Blanks (DMSO, methanol) and standard (TBHQ solution in methanol) were recorded simultaneously. The extracts were screened with variable concentrations to establish the inhibition concentration (IC50, the concentration reducing DPPH absorbance by 50%).
# The free radical scavenging activity was calculated as follows.
# [formula] Where, B=Absorbance of reference solution (OD of DPPH) C=Absorbance of reference solution blank (OD of Methanol only) S=Absorbance of test solution C=Absorbance of test solution blank
smiles,measurement,setting,value
"COc1cc(/C=C/c2ccc(O)cc2)cc(OC)c1 [Pterostilbene, pterostilbene]",% Protection against BaP,[1]; 2.5 μgml,No activity
"Oc1cc(O)cc(/C=C/c2ccc(O)cc2O)c1 [Oxyresveratrol, oxyresveratrol]",inhibition at 3.125 µg/mL,[2]; 3.125 μg/ml,13.3%
same,inhibition at 6.25 µg/mL,[2]; 6.25 μg/ml,18.4%
same,superoxide dismutase activity,[3],restored normal enzyme activity
same,superoxide dismutase activity,[3]; listed as 95% oxyresveratrol,dose dependant increase
same,ROS generated by exposure to UVA,[4]; UVA 60 mins,reduced the ROS
same,ROS generated by exposure to UVB,[4]; UVB 10 mins,reduced the ROS
same,ROS generated by exposure to heavy metals,[4]; heavy metals (cobalt chloride and lead nitrate) 6 hours,reduced the ROS
same,protection against UVA+BaP,[1]; concentrations of 3.12-12.5 μg/ml,dose dependant protection
same,% Protection against BaP,[1]; 6.25 μg/ml,28.04%
same,Anti-collagenase activity % inhibition,[5]; 12.5 μg/ml,0.05%
same,Anti-collagenase activity % inhibition,[5]; 25 μg/ml,9.93%
same,Anti-collagenase activity % inhibition,[5]; 50 μg/ml,41.19%
same,Anti-collagenase activity % inhibition,[5]; 100 μg/ml,80.92%
same,glutathione peroxidase activity,[6],restored normal enzyme activity
same,glutathione peroxidase activity,[6]; listed as 95% oxyresveratrol,dose dependant decrease
same,DPPH radical scavenging % inhibition,[7]; 0.3125 μg/ml,22.9%
same,DPPH radical scavenging % inhibition,[7]; 0.625 μg/ml,42.07%
same,DPPH radical scavenging % inhibition,[7]; 1.25 μg/ml,68.63%
same,DPPH radical scavenging % inhibition,[7]; 2.5 μg/ml,77.89%
same,DPPH radical scavenging % inhibition,[7]; 5.00 μg/ml,84.14%
same,DPPH radical scavenging IC50,[7]; concentration reducing DPPH absorbance by 50%,0.61 µg/mL
"COc1cc(CCC(=O)CC(=O)CCc2ccc(O)c(OC)c2)ccc1O [Tetrahydrocurcumin, tetrahydrocurcumin]",inhibition at 12.5 µg/mL,[2]; read-out: % inhibition of IL-8,6.07%
same,inhibition at 25 µg/mL,[2]; read-out: % inhibition of IL-8,11.7%
same,% Protection against BaP,[1]; 5 μg/ml,No activity
